Assay results published in patent US4996236A, “Therapeutic composition for hepatic encephalopathy” (Takeda Chemical Industries, Ltd., priority 1988, dated 1991).

Legend:
[1] = Acute oral toxicity in rats; settings: rat, in vivo, rats (Wistar)
[2] = Acute oral toxicity in mice; settings: mouse, in vivo, mice (NRMI)
[3] = Blood ammonia level-lowering effect in rats on high-protein diet; format: in vivo, rat (male SD); settings: for Blood ammonia level: 7 days, mean ± S.D., 5 animals
Protocol: The blood ammonia level-lowering effect of N-(1,3-dihydroxy-2-propyl)valiolamine in rats
Male SD rats aged […] were fed either on a regular diet or a high-protein powder diet containing 61% of casein for 7 days. N-(1,3-dihydroxy-2-propyl)valiolamine (hereinafter referred to shortly as AO-128) was added to the high-protein diet at final concentrations of 10 and 50 ppm. The animals had free access to the diets and the mean daily food intake was approximately 18 g/day. On the 7th day, laparotomy was performed under ether anesthesia and the blood was collected from the abdominal aorta. The blood ammonia level was estimated using an assay kit, a product of WAKO.

[4] = diabetics accompanied with hepatocirrhosis; cited from earlier work
α-glucosidase = settings: cited from earlier work

| Compound | LD50 [1] [mg/kg] | LD50 [2] [mg/kg] | Blood ammonia level ([3]; 10 ppm AO-128 in high-protein diet (61% casein)) [µg/dL] | Blood ammonia level ([3]; 50 ppm AO-128 in high-protein diet (61% casein)) [µg/dL] | blood ammonia level versus high-protein diet control group ([3]; AO-128 treated high-protein diet group, 10 and 50 ppm) | effect on blood ammonia level [4] | α-glucosidase inhibitory activity (α-glucosidase) |
| --- | --- | --- | --- | --- | --- | --- | --- |
| OCC(CO)N[C@H]1C[C@](O)(CO)[C@@H](O)[C@H](O)[C@H]1O [AO-128, N-(1,3-dihydroxy-2-propyl)valiolamine] | ~20000 | 14700 to 21500 | 88 ± 7 | 90 ± 8 | overtly lower blood ammonia level than the high-protein diet control group |  |  |
| C[C@H]1O[C@H](O[C@H]2[C@H](O)[C@@H](O)[C@@H](O[C@H]3[C@H](O)[C@@H](O)C(O)O[C@@H]3CO)O[C@@H]2CO)[C@H](O)[C@@H](O)[C@@H]1N[C@H]1C=C(CO)[C@@H](O)[C@H](O)[C@H]1O (stereo partly shown) [acarbose] |  |  |  |  |  | lowers the blood ammonia level | α-glucosidase inhibitor |
